Some test systems named below: SNB-19 CNS; KM12 colon; SK-MEL-5 melanoma; NCI-H23 lung; OVCAR-3 ovarian; BT-549 breast; HCT-116 colon; PC-3 prostate; TK-10 renal; LOX IMVI melanoma.
Common to all, as to assay: inhibition of tumour cell growth, NCI panel, 48 h

Structures are written as SMILES. Values joined by “and” are separate entries in the source; they are usually repeats but may differ in a detail not shown here. Equal entries are not always repeated.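 Following 48 hours of exposure in 96-well plates, responses at five concentrations were used to interpolate endpoints linearly. The concentration for 50% growth inhibition is given as GI50. TGI: concentration producing complete growth inhibition.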

For `Nc1ncnc2c1ncn2C1OC(C(=O)OCCO)C(O)C1O` (stereo not drawn), the TGI with SNB-19 CNS, in the assay with KM12 colon, in the assay on SK-MEL-5 melanoma, in the assay on NCI-H23 lung, with OVCAR-3 ovarian and in the assay on BT-549 breast was greater than 100 µM throughout. The TGI with HCT-116 colon, with PC-3 prostate, in the assay with TK-10 renal and with LOX IMVI melanoma was greater than 100 µM in each case.
Turning to `NCCNc1ncnc2ccc(Cl)cc12`, the TGI in the assay with SNB-19 CNS, in the assay with KM12 colon, in the assay with SK-MEL-5 melanoma, in the assay on NCI-H23 lung, with OVCAR-3 ovarian and in the assay on BT-549 breast was greater than 100 µM throughout. Moreover, the TGI with HCT-116 colon, with PC-3 prostate, in the assay with TK-10 renal and with LOX IMVI melanoma was greater than 100 µM throughout.
In the case of `CCN1C(=O)N(CC)C2C1NN=c1s/c(=C\c3cnc(C)n3C)c(=O)n12` (stereo not drawn), the GI50 with SNB-19 CNS was 3.94 µM; in the assay on KM12 colon, 1.22 µM; in the assay on SK-MEL-5 melanoma, 1.2 µM; in the assay on NCI-H23 lung, 3.17 µM; with OVCAR-3 ovarian, 0.593 µM; in the assay with BT-549 breast, 3.66 µM. In addition, the GI50 with HCT-116 colon was 2.43 µM; in the assay with PC-3 prostate, 2.07 µM; with TK-10 renal, 7.19 µM; in the assay on LOX IMVI melanoma, 4.43 µM. For the same compound, the TGI with SNB-19 CNS is greater than 100 µM; in the assay with KM12 colon, greater than 100 µM; in the assay with SK-MEL-5 melanoma, 11.1 µM; with NCI-H23 lung, greater than 100 µM; with OVCAR-3 ovarian, 3.41 µM; in the assay with BT-549 breast it was 90.9 µM. The TGI with HCT-116 colon, in the assay with PC-3 prostate, in the assay with TK-10 renal and in the assay on LOX IMVI melanoma was greater than 100 µM in each case.
In the case of `COC(=O)[C@]1(C)CC[C@]2(C)CC[C@]3(C)C(=CC(=O)[C@@H]4[C@@]5(C)CCC(=O)NC(C)(C)[C@@H]5CC[C@]43C)[C@@H]2C1`, the GI50 in the assay on SNB-19 CNS was 29 µM; with KM12 colon, 16.4 µM; in the assay on SK-MEL-5 melanoma it was 14.7 µM; in the assay with NCI-H23 lung, 31 µM; in the assay with OVCAR-3 ovarian, 15.3 µM; in the assay on BT-549 breast, 12.8 µM. The GI50 in the assay with HCT-116 colon is 10.8 µM; in the assay with PC-3 prostate it was 4.69 µM; with TK-10 renal, 40.2 µM; in the assay with LOX IMVI melanoma, 16.6 µM. Moreover, the TGI in the assay on SNB-19 CNS was greater than 100 µM; in the assay on KM12 colon, 38 µM; in the assay with SK-MEL-5 melanoma it was 28.9 µM; with NCI-H23 lung it was greater than 100 µM; in the assay on OVCAR-3 ovarian, 32.7 µM; with BT-549 breast it was 28 µM. For the same compound, the TGI with HCT-116 colon is 25.6 µM; in the assay with PC-3 prostate, 21.3 µM; in the assay with TK-10 renal, greater than 100 µM; in the assay with LOX IMVI melanoma, 32.3 µM.
With `COC(=O)C1=C(O)C(C(=O)OC)[C@@]2(O)[C@@H](C(=O)OC)C(c3ccccc3Cl)C[C@@H]1[C@@H]2C(=O)OC` (stereo partly drawn), the GI50 was 16.2 µM in the assay on SNB-19 CNS; 6.5 µM in the assay on KM12 colon; 11.1 µM with SK-MEL-5 melanoma; 9.79 µM in the assay with NCI-H23 lung; 4.48 µM in the assay on OVCAR-3 ovarian; 7.65 µM in the assay on BT-549 breast. Besides, the GI50 was 1.97 µM in the assay with HCT-116 colon, 5.88 µM with PC-3 prostate, 10.3 µM with TK-10 renal and 4.43 µM with LOX IMVI melanoma. The TGI in the assay on SNB-19 CNS amounted to 39.5 µM; with KM12 colon it was 21.2 µM; in the assay with SK-MEL-5 melanoma, 24.2 µM; in the assay with NCI-H23 lung it was 23.3 µM; in the assay with OVCAR-3 ovarian it was 16.1 µM; in the assay on BT-549 breast it was 33.8 µM. In addition, the TGI in the assay on HCT-116 colon worked out at 4.12 µM; in the assay on PC-3 prostate it was 36.5 µM; with TK-10 renal it was 25.4 µM; in the assay with LOX IMVI melanoma it was 17 µM.
Regarding `COc1ccc(OC)c(/C=C/C(=O)c2ccc3cc(OC)ccc3c2)c1`, the TGI in the assay with SNB-19 CNS is greater than 17.2 µM; with KM12 colon, 11.2 µM; with SK-MEL-5 melanoma, greater than 24.3 µM; in the assay on NCI-H23 lung it was greater than 14.3 µM; in the assay on OVCAR-3 ovarian, 11.9 µM; with BT-549 breast, greater than 37.4 µM. Moreover, the TGI in the assay with HCT-116 colon, with PC-3 prostate, in the assay on TK-10 renal and with LOX IMVI melanoma was greater than 50 µM throughout. In addition, the GI50 was 3.02 µM in the assay with KM12 colon; 6.4 µM in the assay with SK-MEL-5 melanoma; 1.64 µM with OVCAR-3 ovarian; 7.01 µM with BT-549 breast; greater than 15 µM in the assay with HCT-116 colon; 6.71 µM in the assay on PC-3 prostate. Besides, the figures for the GI50 in the assay with TK-10 renal and with LOX IMVI melanoma were 3.84 µM and 48 µM, respectively.
Take `COc1cc[nH]c1/C=C1\C(=O)Nc2ccc([N+](=O)[O-])c(N3CC[C@@H](O)C3)c21`: the GI50 in the assay on SNB-19 CNS was 0.495 µM; with KM12 colon it was 0.101 µM; in the assay with SK-MEL-5 melanoma it was 0.181 µM; in the assay with NCI-H23 lung, 0.484 µM; in the assay with OVCAR-3 ovarian, 0.131 µM; in the assay with BT-549 breast, 0.328 µM. Besides, the GI50 in the assay on HCT-116 colon was 0.0759 µM; in the assay on PC-3 prostate, 0.235 µM; in the assay on TK-10 renal, 0.512 µM; with LOX IMVI melanoma, 0.0923 µM. The TGI in the assay with SNB-19 CNS is 5.68 µM; in the assay with KM12 colon, 2.22 µM; in the assay on SK-MEL-5 melanoma, 0.847 µM; with NCI-H23 lung, 1.89 µM; with OVCAR-3 ovarian, 1.59 µM; with BT-549 breast, 1.59 µM. The TGI in the assay on HCT-116 colon came to 25 µM; in the assay with PC-3 prostate it was 2.15 µM; with TK-10 renal, 1.61 µM; in the assay with LOX IMVI melanoma it was 1.41 µM.
As to `CCCCCCCCCCCCCCCC(N)c1ccccc1` (stereo not drawn), the GI50 was 1.77 µM in the assay with KM12 colon; 1.67 µM in the assay with SK-MEL-5 melanoma; 1.74 µM in the assay on NCI-H23 lung; 1.64 µM in the assay on OVCAR-3 ovarian; 1.63 µM in the assay on BT-549 breast; 1.67 µM with PC-3 prostate. Moreover, the figures for the GI50 in the assay on TK-10 renal and in the assay on LOX IMVI melanoma were 1.61 µM and 1.52 µM, respectively. Moreover, the TGI in the assay with KM12 colon stood at 3.29 µM; with SK-MEL-5 melanoma, 3.23 µM; with NCI-H23 lung it was 3.35 µM; in the assay with OVCAR-3 ovarian, 3.08 µM; in the assay on BT-549 breast, 3.11 µM; with PC-3 prostate, 3.26 µM. Moreover, the results for the TGI in the assay on TK-10 renal and in the assay with LOX IMVI melanoma were 3.1 µM and 3 µM, respectively.
As for `Nc1nc(N)c(-c2ccc(Cl)cc2)c(/C=C/c2ccc([N+](=O)[O-])cc2)n1`, the GI50 in the assay on SNB-19 CNS was 16.1 µM; with KM12 colon it was 23.4 µM; in the assay on SK-MEL-5 melanoma, 3.83 µM; in the assay on NCI-H23 lung, 13.3 µM; in the assay with OVCAR-3 ovarian it was 5.76 µM; in the assay on BT-549 breast, 13.1 µM. Also, the GI50 is 3.97 µM in the assay on HCT-116 colon, 3.9 µM with PC-3 prostate and 4.52 µM in the assay with LOX IMVI melanoma. For the same compound, the TGI in the assay on SNB-19 CNS is greater than 100 µM; in the assay with KM12 colon it was greater than 100 µM; in the assay with SK-MEL-5 melanoma, greater than 100 µM; in the assay with NCI-H23 lung, greater than 100 µM; in the assay with OVCAR-3 ovarian, 31.1 µM; in the assay on BT-549 breast, 90.3 µM. In addition, the TGI in the assay on HCT-116 colon, with PC-3 prostate and in the assay on LOX IMVI melanoma was greater than 100 µM each time.
With `CC(C)CC1NC(=O)C(C(C)C)NC(=O)CC(C)COC(=O)C(CC(C)C)N(C)C(=O)C(C(C)C)NC(=O)C(C(C)C)OC1=O` (stereo not drawn), the TGI with SNB-19 CNS, with KM12 colon, in the assay on SK-MEL-5 melanoma, in the assay on NCI-H23 lung, with OVCAR-3 ovarian and in the assay with BT-549 breast was greater than 50 µM throughout. Also, the TGI in the assay on HCT-116 colon, in the assay with PC-3 prostate and with LOX IMVI melanoma was greater than 50 µM in each case.
For `COn1cc(C(=O)N=C(SC)SC)c2ccccc21`, the GI50 in the assay on SNB-19 CNS was 40.2 µM; in the assay on KM12 colon, 20.3 µM; in the assay with SK-MEL-5 melanoma, 15.7 µM; in the assay with NCI-H23 lung, 27.2 µM; with OVCAR-3 ovarian it was 17.8 µM; in the assay with BT-549 breast, 19.2 µM. For the same compound, the GI50 in the assay on PC-3 prostate was 25.1 µM; with LOX IMVI melanoma it was 17.6 µM. Moreover, the TGI in the assay with SNB-19 CNS was greater than 100 µM; with KM12 colon, 52.7 µM; in the assay with SK-MEL-5 melanoma it was 34.4 µM; in the assay on NCI-H23 lung it was 60.3 µM; in the assay with OVCAR-3 ovarian, 51.5 µM; in the assay on BT-549 breast it was 63.3 µM. In addition, the values for the TGI with PC-3 prostate and in the assay on LOX IMVI melanoma were greater than 100 µM and 50.6 µM, respectively.
As for `C=C1C(OCCO)OC2O[C@]3(C)CCC4[C@H](C)CCC1C24OO3` (stereo partly drawn), the GI50 in the assay with SNB-19 CNS was greater than 100 µM; with KM12 colon, 6.04 µM; in the assay with SK-MEL-5 melanoma, 23.8 µM; in the assay on NCI-H23 lung, 7.46 µM; with OVCAR-3 ovarian, 15.6 µM; in the assay on BT-549 breast it was 10.8 µM. Besides, the values for the GI50 with HCT-116 colon, with PC-3 prostate and with LOX IMVI melanoma were 8.69 µM, 4.11 µM and 4.15 µM, respectively. Moreover, the TGI with SNB-19 CNS was greater than 100 µM; with KM12 colon, greater than 100 µM; in the assay with SK-MEL-5 melanoma, greater than 100 µM; in the assay with NCI-H23 lung, 53.6 µM; in the assay with OVCAR-3 ovarian it was greater than 100 µM; in the assay on BT-549 breast it was 71.2 µM. For the same compound, the TGI is greater than 100 µM in the assay on HCT-116 colon, greater than 100 µM in the assay with PC-3 prostate and 19.2 µM with LOX IMVI melanoma.
In the case of `NC(=S)N=Nc1c(O)[nH]c2ccccc12`, the GI50 in the assay with SNB-19 CNS was 262 µM; with KM12 colon, 217 µM; with SK-MEL-5 melanoma, 55.5 µM and 201 µM; with OVCAR-3 ovarian it was 139 µM; in the assay on BT-549 breast, 131 µM; in the assay on HCT-116 colon, 152 µM. Also, the results for the GI50 in the assay with PC-3 prostate, in the assay on TK-10 renal and in the assay with LOX IMVI melanoma were 172 µM, 165 µM and 226 µM, respectively. Besides, the TGI with SNB-19 CNS is 722 µM; with KM12 colon, greater than 1000 µM; in the assay with SK-MEL-5 melanoma, 651 µM; with OVCAR-3 ovarian, 322 µM; in the assay on BT-549 breast, 258 µM; in the assay on HCT-116 colon, 297 µM. Also, the TGI in the assay on PC-3 prostate is 392 µM; with TK-10 renal, 326 µM; in the assay with LOX IMVI melanoma it was greater than 1000 µM.

The values above are taken from PubChem BioAssay (NCI).
